# Test results: the supplement of paper PMC11061612
# Key:
# Capivasertib = compound: C1CN(CCC1(C(=O)N[C@@H](CCO)C2=CC=C(C=C2)Cl)N)C3=NC=NC4=C3C=CN4 [Capivasertib]; settings: max 10 µM
# Procedure, shortened: (§1)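 Viability was measured with CellTiter-Glo 2.0 luminescence after 72 hours of dosing at a final DMSO of typically 0.2%, and scaled between blank-well and DMSO-well means. Beforehand, cancer cell lines sat 24 hours at 37°C and 5% CO2 in 1536-well plates in 7.5 μl DMEM/F12 or RPMI with 10% FBS. A non-linear mixed effects model fitted two-parameter logistic curves to the dose responses. The single-agent IC50 comes from these fits.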
# AZD1775 = compound: C=CCn1c(=O)c2cnc(Nc3ccc(N4CCN(C)CC4)cc3)nc2n1-c1cccc(C(C)(C)O)n1 [AZD1775]; settings: max 3 µM
# Procedure, shortened: as §1
# Trametinib = compound: CC(=O)Nc1cccc(-n2c(=O)n(C3CC3)c(=O)c3c(Nc4ccc(I)cc4F)n(C)c(=O)c(C)c32)c1 [Trametinib]; settings: max 1 µM
# Procedure, shortened: as §1
# Palbociclib = compound: CC(=O)c1c(C)c2cnc(Nc3ccc(N4CCNCC4)cn3)nc2n(C2CCCC2)c1=O [Palbociclib]; settings: max 10 µM
# Procedure, shortened: as §1
# AZD1390 = compound: CC(C)n1c(=O)n(C)c2cnc3cc(F)c(-c4ccc(OCCCN5CCCCC5)nc4)cc3c21 [AZD1390]; settings: max 0.3 µM
# Procedure, shortened: as §1
# Venetoclax = compound: CC1(C)CCC(CN2CCN(c3ccc(C(=O)NS(=O)(=O)c4ccc(NCC5CCOCC5)c([N+](=O)[O-])c4)c(Oc4cnc5[nH]ccc5c4)c3)CC2)=C(c2ccc(Cl)cc2)C1 [Venetoclax]; settings: max 1 µM
# Procedure, shortened: as §1
# Dasatinib = compound: CC1=C(C(=CC=C1)Cl)NC(=O)C2=CN=C(S2)NC3=CC(=NC(=N3)C)N4CCN(CC4)CCO [Dasatinib]; settings: max 2 µM
# Procedure, shortened: as §1
# SG3199 = compound: CC1=CN2[C@@H](C1)C=NC3=CC(=C(C=C3C2=O)OC)OCCCCCOC4=C(C=C5C(=C4)N=C[C@@H]6CC(=CN6C5=O)C)OC [SG3199]; settings: max 0.001 µM
# Procedure, shortened: as §1
# AZD2811 = compound: CCN(CCO)CCCOc1ccc2c(Nc3cc(CC(=O)Nc4cccc(F)c4)[nH]n3)ncnc2c1 [AZD2811]; settings: max 1 µM
# Procedure, shortened: as §1
# SN-38 = compound: CCc1c2c(nc3ccc(O)cc13)-c1cc3c(c(=O)n1C2)COC(=O)[C@]3(O)CC [SN-38]; settings: max 0.3 µM
# Procedure, shortened: as §1
# AZD0156 = compound: CN(C)CCCOc1ccc(-c2ccc3ncc4c(c3c2)n(C2CCOCC2)c(=O)n4C)cn1 [AZD0156]; settings: max 3 µM
# Procedure, shortened: as §1
# AZD4320 = compound: CN(CC[C@H](CSC1=CC=CC=C1)NC2=C(C=C(C=C2)S(=O)(=O)NC(=O)C3=CC=C(C=C3)N4CCC(CC4)[C@H](C5=CC=CC=C5C6=CC=C(C=C6)Cl)O)S(=O)(=O)C(F)(F)F)CCO [AZD4320]; settings: max 1 µM
# Procedure, shortened: as §1
# Alisertib = compound: COc1cc(Nc2ncc3c(n2)-c2ccc(Cl)cc2C(c2c(F)cccc2OC)=NC3)ccc1C(=O)O [Alisertib]; settings: max 10 µM
# Procedure, shortened: as §1
# Gefitinib = compound: COc1cc2ncnc(Nc3ccc(F)c(Cl)c3)c2cc1OCCCN1CCOCC1 [Gefitinib]; settings: max 10 µM
# Procedure, shortened: as §1
# Prexasertib = compound: COc1cccc(OCCCN)c1-c1cc(Nc2cnc(C#N)cn2)n[nH]1 [Prexasertib]; settings: max 1 µM
# Procedure, shortened: as §1
# Doxorubicin = compound: COc1cccc2c1C(=O)c1c(O)c3c(c(O)c1C2=O)C[C@@](O)(C(=O)CO)C[C@@H]3O[C@H]1C[C@H](N)[C@H](O)[C@H](C)O1 [Doxorubicin]; settings: max 1 µM
# Procedure, shortened: as §1
# AZD5153 = compound: COc1nnc2ccc(N3CCC(c4ccc(OCCN5CCN(C)C(=O)[C@H]5C)cc4)CC3)nn12 [AZD5153]; settings: max 1 µM
# Procedure, shortened: as §1
# Lapatinib = compound: CS(=O)(=O)CCNCc1ccc(-c2ccc3ncnc(Nc4ccc(OCc5cccc(F)c5)c(Cl)c4)c3c2)o1 [Lapatinib]; settings: max 10 µM
# Procedure, shortened: as §1
# AZD8186 = compound: C[C@@H](Nc1cc(F)cc(F)c1)c1cc(C(=O)N(C)C)cc2c(=O)cc(N3CCOCC3)oc12 [AZD8186]
# Procedure, shortened: as §1
# Crizotinib = compound: C[C@@H](Oc1cc(-c2cnn(C3CCNCC3)c2)cnc1N)c1c(Cl)ccc(F)c1Cl [Crizotinib]; settings: max 10 µM
# Procedure, shortened: as §1
# Savolitinib = compound: C[C@@H](c1ccc2nccn2c1)n1nnc2ncc(-c3cnn(C)c3)nc21 [Savolitinib]; settings: max 1 µM
# Procedure, shortened: as §1
# AZD6738 = compound: C[C@@H]1COCCN1C2=NC(=NC(=C2)C3(CC3)[S@](=N)(=O)C)C4=C5C=CNC5=NC=C4 [AZD6738]; settings: max 10 µM
# Procedure, shortened: as §1
# AZD5991 = compound: Cc1c2c(nn1C)CSCc1cc(n(C)n1)CSc1cc(c3ccccc3c1)OCCCc1c(C(=O)O)n(C)c3c-2c(Cl)ccc13 [AZD5991]; settings: max 1 µM
# Procedure, shortened: as §1
# AZD7648 = compound: Cc1cc2ncnn2cc1Nc1ncc2c(n1)n(C1CCOCC1)c(=O)n2C [AZD7648]; settings: max 10 µM
# Procedure, shortened: as §1
# Taselisib = compound: Cc1nc(-c2cn3c(n2)-c2ccc(-c4cnn(C(C)(C)C(N)=O)c4)cc2OCC3)n(C(C)C)n1 [Taselisib]; settings: max 10 µM
# Procedure, shortened: as §1
# Selumetinib = compound: Cn1cnc2c(F)c(Nc3ccc(Br)cc3Cl)c(C(=O)NOCCO)cc21 [Selumetinib]; settings: max 10 µM
# Procedure, shortened: as §1
# MK-2206 = compound: NC1(c2ccc(-c3nc4ccn5c(=O)[nH]nc5c4cc3-c3ccccc3)cc2)CCC1 [MK-2206]; settings: max 10 µM
# Procedure, shortened: as §1
# Olaparib = compound: O=C(c1cc(Cc2n[nH]c(=O)c3ccccc23)ccc1F)N1CCN(C(=O)C2CC2)CC1 [Olaparib]; settings: max 10 µM
# Procedure, shortened: as §1
# Carboplatin = compound: C1CC(C1)(C(=O)[O-])C(=O)[O-].N.N.[Pt+2] [Carboplatin]; settings: max 10 µM
# Procedure, shortened: as §1
# AZD5363 = compound: C1CN(CCC1(C(=O)N[C@@H](CCO)C2=CC=C(C=C2)Cl)N)C3=NC=NC4=C3C=CN4 [AZD5363]; settings: max 10 µM
# Procedure, shortened: as §1
# Paclitaxel = compound: CC(=O)O[C@H]1C(=O)[C@@]2(C)[C@H]([C@H](OC(=O)c3ccccc3)[C@]3(O)C[C@H](OC(=O)[C@H](O)[C@@H](NC(=O)c4ccccc4)c4ccccc4)C(C)=C1C3(C)C)[C@]1(OC(C)=O)CO[C@@H]1C[C@@H]2O [Paclitaxel]; settings: max 3 µM
# Procedure, shortened: as §1
# Etoposide = compound: COc1cc([C@@H]2c3cc4c(cc3[C@@H](O[C@@H]3O[C@@H]5CO[C@@H](C)O[C@H]5[C@H](O)[C@H]3O)[C@H]3COC(=O)[C@H]23)OCO4)cc(OC)c1O [Etoposide]; settings: max 10 µM
# Procedure, shortened: as §1
# SRA737 = compound: N#Cc1cnc(Nc2cc(NC[C@H]3CNCCO3)c(C(F)(F)F)cn2)cn1 [SRA737]; settings: max 10 µM
# Procedure, shortened: as §1
# [1] = compound: O=C(Nc1ccc2[nH]nc(-c3ccncc3)c2c1)[C@@H]1CCN(CC(=O)N2CCN(c3ccc(-c4ncccn4)cc3)CC2)C1; settings: max 5 µM
# Procedure, shortened: as §1
# 5-Fluorouracil = compound: O=c1[nH]cc(F)c(=O)[nH]1 [5-Fluorouracil]; settings: max 20 µM
# Procedure, shortened: as §1
# Gemcitabine = compound: Nc1ccn([C@@H]2O[C@H](CO)[C@@H](O)C2(F)F)c(=O)n1 [Gemcitabine]; settings: max 0.3 µM
# Procedure, shortened: as §1
Cell Line,"IC50, cell viability 72 h (Capivasertib)","IC50, cell viability 72 h (AZD1775)","IC50, cell viability 72 h (Trametinib)","IC50, cell viability 72 h (Palbociclib)","IC50, cell viability 72 h (AZD1390)","IC50, cell viability 72 h (Venetoclax)","IC50, cell viability 72 h (Dasatinib)","IC50, cell viability 72 h (SG3199)","IC50, cell viability 72 h (AZD2811)","IC50, cell viability 72 h (SN-38)","IC50, cell viability 72 h (AZD0156)","IC50, cell viability 72 h (AZD4320)","IC50, cell viability 72 h (Alisertib)","IC50, cell viability 72 h (Gefitinib)","IC50, cell viability 72 h (Prexasertib)","IC50, cell viability 72 h (Doxorubicin)","IC50, cell viability 72 h (AZD5153)","IC50, cell viability 72 h (Lapatinib)","IC50, cell viability 72 h (AZD8186; max 3 µM)","IC50, cell viability 72 h (Crizotinib)","IC50, cell viability 72 h (Savolitinib)","IC50, cell viability 72 h (AZD6738)","IC50, cell viability 72 h (AZD5991)","IC50, cell viability 72 h (AZD7648)","IC50, cell viability 72 h (Taselisib)","IC50, cell viability 72 h (Selumetinib)","IC50, cell viability 72 h (MK-2206)","IC50, cell viability 72 h (Olaparib)","IC50, cell viability 72 h (Carboplatin)","IC50, cell viability 72 h (AZD5363)","IC50, cell viability 72 h (Paclitaxel)","IC50, cell viability 72 h (Etoposide)","IC50, cell viability 72 h (AZD8186; max 10 µM)","IC50, cell viability 72 h (SRA737)","IC50, cell viability 72 h [1]","IC50, cell viability 72 h (5-Fluorouracil)","IC50, cell viability 72 h (Gemcitabine)"
H9 (T-Cell Non-Hodgkin's Lymphoma),3070 nM,416 nM,2.71 nM,> 10000 nM,> 300 nM,> 1000 nM,> 2000 nM,> 1 nM,26 nM,6.62 nM,> 3000 nM,142 nM,115 nM,7120 nM,7.26 nM,83.8 nM,6.23 nM,9540 nM,> 3000 nM,2360 nM,> 1000 nM,1310 nM,413 nM,> 10000 nM,> 10000 nM,53.6 nM,818 nM,> 10000 nM,,,,,,,,,
KP-3 (Pancreatic Carcinoma),,> 3000 nM,> 1000 nM,> 10000 nM,> 300 nM,> 1000 nM,> 2000 nM,> 1 nM,> 1000 nM,> 300 nM,> 3000 nM,> 1000 nM,> 10000 nM,> 10000 nM,> 1000 nM,> 1000 nM,> 1000 nM,> 10000 nM,,> 10000 nM,> 1000 nM,> 10000 nM,> 1000 nM,> 10000 nM,> 10000 nM,> 10000 nM,> 10000 nM,> 10000 nM,> 10000 nM,> 10000 nM,> 3000 nM,> 10000 nM,> 10000 nM,> 10000 nM,> 5000 nM,> 20000 nM,
KY821 (Acute Myeloid Leukemia),> 10000 nM,212 nM,5.35 nM,610 nM,> 300 nM,9.8 nM,> 2000 nM,> 1 nM,> 1000 nM,8.99 nM,> 3000 nM,4.53 nM,28.6 nM,> 10000 nM,8.46 nM,272 nM,22.1 nM,> 10000 nM,2700 nM,4630 nM,> 1000 nM,3070 nM,13.2 nM,> 10000 nM,90.7 nM,623 nM,> 10000 nM,> 10000 nM,,,,,,,,,
OCI-AML3 (Acute Myeloid Leukemia),,615 nM,2.98 nM,5340 nM,> 300 nM,> 1000 nM,> 2000 nM,,324 nM,10.1 nM,> 3000 nM,> 1000 nM,,> 10000 nM,,,25.6 nM,> 10000 nM,,6530 nM,> 1000 nM,1810 nM,250 nM,> 10000 nM,1440 nM,91.9 nM,> 10000 nM,> 10000 nM,> 10000 nM,> 10000 nM,4.57 nM,1270 nM,> 10000 nM,5320 nM,156 nM,3070 nM,5.04 nM
SUP-B15 (B-Lymphoblastic Leukemia),8510 nM,692 nM,627 nM,> 10000 nM,> 300 nM,3.48 nM,10.5 nM,> 1 nM,34 nM,2.7 nM,> 3000 nM,2.13 nM,38.4 nM,> 10000 nM,21.7 nM,369 nM,98 nM,> 10000 nM,> 3000 nM,1380 nM,> 1000 nM,2110 nM,38.9 nM,> 10000 nM,> 10000 nM,> 10000 nM,,2020 nM,,,,,,,,,
DAN-G (Pancreatic Carcinoma),> 10000 nM,405 nM,675 nM,> 10000 nM,> 300 nM,> 1000 nM,> 2000 nM,> 1 nM,> 1000 nM,> 300 nM,> 3000 nM,> 1000 nM,> 10000 nM,> 10000 nM,72.7 nM,> 1000 nM,> 1000 nM,> 10000 nM,> 3000 nM,> 10000 nM,> 1000 nM,5490 nM,> 1000 nM,> 10000 nM,718 nM,> 10000 nM,,> 10000 nM,,,,,,,,,
